In general, EC50 refers to the midpoint of the concentration-response curve. In general, Ki refers to the dissociation constant of the complex between target and ligand, obtained from inhibition or displacement.

The target of assay [1] is T1, human GPR119 (Homo sapiens, UniProt Q8TDV5).
T1 construct: host or cells: HEK293-CRE-beta-lactamase
T1 sequence (Q8TDV5 1-335): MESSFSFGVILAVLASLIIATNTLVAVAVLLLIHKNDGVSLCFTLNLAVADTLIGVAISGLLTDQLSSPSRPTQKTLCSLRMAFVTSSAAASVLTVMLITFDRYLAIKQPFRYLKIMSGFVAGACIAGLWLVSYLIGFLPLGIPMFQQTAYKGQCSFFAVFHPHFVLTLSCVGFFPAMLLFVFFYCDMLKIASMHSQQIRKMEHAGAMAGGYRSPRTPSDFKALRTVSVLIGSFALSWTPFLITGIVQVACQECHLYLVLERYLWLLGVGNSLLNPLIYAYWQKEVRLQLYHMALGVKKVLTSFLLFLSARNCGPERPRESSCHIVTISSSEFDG
Kind of assay: cAMP HTRF functional assay (hGPR119 HEK-CRE beta-lactamase cells). The note with it: for Emax: read-out: Intrinsic Activity* (cAMP). It is filed as cell-based. Here is the method:
GPR119 agonist activity was also determined with a cell-based assay utilizing an HTRF (Homogeneous Time-Resolved Fluorescence) cAMP detection kit (cAMP dynamic 2 Assay Kit; Cis Bio cat #62AM4PEC) that measures cAMP levels in the cell. The method is a competitive immunoassay between native cAMP produced by the cells and the cAMP labeled with the dye d2. The tracer binding is visualized by a Mab anti-cAMP labeled with Cryptate. The specific signal (i.e. energy transfer) is inversely proportional to the concentration of cAMP in either standard or sample.
Following 30 minutes incubation at room temperature, 5 microL of labeled d2 cAMP and 5 microL of anti-cAMP antibody (both diluted 1:20 in cell lysis buffer; as described in the manufacturers assay protocol) were added to each well of the assay plate. […] Raw data were converted to nM cAMP by interpolation from a cAMP standard curve (as described in the manufacturer's assay protocol) and EC50 determinations were made from an agonist-response curves analyzed with a curve fitting program using a 4-parameter logistic dose response equation.

Assay [2] addresses T1, human GPR119. As to the kind of experiment: GPR119 radioligand binding assay ([3H]-Compound A or [3H]-Compound B, HEK 293FT membranes). The note with it: Ki from IC50 by Cheng-Prusoff; one value per run; read-out: Human Binding Ki. Here is the method:
Cells were harvested via centrifugation (3,000×g, 10 minutes), washed once on DPBS (minus Ca++/Mg++), resuspended in 0.25M sucrose, 25 mM HEPES, 0.5 mM EDTA, pH 7.4 and frozen at −80 degrees Celsius.
The frozen cells were thawed on ice and centrifuged at 700×g (1400 rpm) for 10 minutes at 4 degrees Celsius. The cell pellet was resuspended in 20 mL phosphate-buffered saline, and centrifuged at 1400 rpm for 10 minutes. […] Cells were then lysed with 15 gentle strokes of a tight-fitting glass Dounce homogenizer. The homogenate was centrifuged at 1000×g (2200 rpm) for 10 minutes at 4 degrees Celsius. The supernatant was transferred into fresh centrifuge tubes on ice. The cell pellet was resuspended in homogenization buffer, and centrifuged again at 1000×g (2200 rpm) for 10 minutes at 4 degrees Celsius after which the supernatant was removed and the pellet resuspended in homogenization buffer. […] The solution was then centrifuged at 25,000×g (15000 rpm) for 20 minutes at 4 degrees Celsius, the supernatant was discarded, and the pellet was resuspended in fresh homogenization buffer (minus Benzonase and MgCl2). After repeating the 25,000×g centrifugation step, the final membrane pellet was resuspended in homogenization buffer and frozen at −80 degrees Celsius.
2 microL of each dilution was added to appropriate wells of a 96-well plate (each concentration in triplicate).
Membranes expressing GPR119 were thawed and diluted to a final concentration of 20 μg/100 microL per well in Binding Buffer, and 100 microL of diluted membranes were added to each well of 96-well plate.
The plate was incubated for 60 minutes w/shaking at room temperature (approximately 25 degrees Celsius). […] Filters were then washed six times using washing buffer (50 mM Tris-HCl, pH 7.5 kept at 4 degrees Celsius). The filter plates were then air-dyed at room temperature overnight.
IC50 determinations were made from competition curves, analyzed with a proprietary curve fitting program (SIGHTS) and a 4-parameter logistic dose response equation. Ki values were calculated from IC50 values, using the Cheng-Prusoff equation.

The target in assay [3] is T1, human GPR119. As to the kind of experiment: beta-lactamase reporter functional assay (hGPR119 HEK293-CRE beta-lactamase cells). It is filed as cell-based. Particulars: one value per run; for EC50: hGPR119 HEK293-CRE beta-lactamase cells, read-out: Human B-lactamase Functional EC50; for Intrinsic Activity* (B-lactamase) / Emax: percent of maximal activity relative to standard GPR119 agonist (WO2005121121) at 10 microM; for Emax: read-out: Intrinsic Activity* (B-lactamase). The procedure:
The assay for GPR119 agonists utilizes a cell-based (hGPR119 HEK293-CRE beta-lactamase) reporter construct where agonist activation of human GPR119 is coupled to beta-lactamase production via a cyclic AMP response element (CRE). GPR119 activity is then measured utilizing a FRET-enabled beta-lactamase substrate, CCF4-AM (Live Blazer FRET-B/G Loading kit, Invitrogen cat #K1027). […] After 4 hours the plating medium was removed and replaced with 40 microL of assay medium (Assay medium is plating medium without potassium clavulanate and HIFBS). Varying concentrations of each compound to be tested was then added in a volume of 10 microL (final DMSO≦0.5%) and the cells were incubated for 16 hours at 37 degrees Celsius in a humidified environment containing 5% carbon dioxide. Plates were removed from the incubator and allowed to equilibrate to room temperature for approximately 15 minutes. 10 microL of 6×CCF4/AM working dye solution (prepared according to instructions in the Live Blazer FRET-B/G Loading kit, Invitrogen cat #K1027) was added per well and incubated at room temperature for 2 hours in the dark. Fluorescence was measured on an EnVision fluorimetric plate reader, excitation 405 nm, emission 460 nm/535 nm. EC50 determinations were made from agonist-response curves analyzed with a curve fitting program using a 4-parameter logistic dose-response equation.

The mark [4] stands for this setting: hGPR119 HEK-CRE beta-lactamase cells, HTRF cAMP, one value per run.
The mark [5] stands for this setting: percent of maximal activity relative to standard GPR119 agonist (WO2005121121) at 10 μM, one value per run.
The mark [6] stands for this setting: **curve was extrapolated to 100% to calculate an EC50.

Several values for one entry are separate records, joined by “and”; a condition that tells them apart may be missing. Equal values may be shown once. Bounds are passed on as bounds.

With `Cc1ncccc1OCc1cnn(C2CCN(C(=O)OC3(C)CC3)CC2)c1C#N` [Example 30, 1-Methylcyclopropyl 4-(5-cyano-4-{[(2-methylpyridin-3-yl)oxy]methyl}-1H-pyrazol-1-yl)piperidine-1-carboxylate], the EC50 on human GPR119 [1] (setting [4]) was 256 nM and 245 nM. For the same molecule, at human GPR119 [1] (setting [5]), the “Intrinsic Activity* (cAMP)” value was 60% and the Emax was 68%. Besides, the Ki on human GPR119 [2] came to 2020 nM. At human GPR119 [3], the EC50 is 136 nM and 166 nM; the “Intrinsic Activity* (B-lactamase)” value was 113% and 76%.
For `CC(C)OC(=O)N1CCC(n2ncc(CNc3ccc(S(C)(=O)=O)cc3F)c2C#N)CC1` [Example 10, Isopropyl 4-[5-cyano-4-({[2-fluoro-4-(methylsulfonyl)phenyl]amino}methyl)-1H-pyrazol-1-yl]piperidine-1-carboxylate], the EC50 at human GPR119 [1] (setting [4]) was 87 nM and 98 nM. On human GPR119 [1] (setting [5]), the “Intrinsic Activity* (cAMP)” value amounted to 57% and the Emax amounted to 62%. Also, on human GPR119 [2], the Ki is 28 nM and 30 nM. At human GPR119 [3], the EC50 was 34 nM and 38 nM; the “Intrinsic Activity* (B-lactamase)” value was 94%; the Emax was 100%.
On to `CC(C)OC(=O)N1CCC(n2ncc(COc3ccc(S(C)(=O)=O)cc3F)c2C#N)CC1` [Example 2, Isopropyl 4-(5-cyano-4-{[2-fluoro-4-(methylsulfonyl)phenoxy]methyl}-1H-pyrazol-1-yl)piperidine-1-carboxylate], for which the EC50 at human GPR119 [1] (setting [4]) was 29 nM and 27 nM. Besides, at human GPR119 [1] (setting [5]), the “Intrinsic Activity* (cAMP)” value is reported as 63% and the Emax is 60%. In addition, at human GPR119 [2], the Ki was 10 nM and 19 nM and 13 nM and 40 nM. In addition, at human GPR119 [3], the EC50 is 9 nM and 17 nM; the “Intrinsic Activity* (B-lactamase)” value is 93% and 84%; the Emax was found to be 100%.
As to `CC(C)OC(=O)N1CCC(n2ncc(COc3c(F)ccc(F)c3F)c2C#N)CC1` [Example 32, Isopropyl 4-{5-cyano-4-[(2,3,6-trifluorophenoxy)methyl]-1H-pyrazol-1-yl}piperidine-1-carboxylate], the EC50 on human GPR119 [1] (setting [4]) is 66 nM and 64 nM and 58 nM. Further, on human GPR119 [1] (setting [5]), the “Intrinsic Activity* (cAMP)” value was 78% and 60%; the Emax turned out to be 66%. Besides, on human GPR119 [2], the Ki was found to be 514 nM. Also, at human GPR119 [3], the EC50 was determined as 281 nM and the Emax came to 86%.
At human GPR119 [1] (setting [4]), `Cc1ncccc1OC(C)c1cnn(C2CCN(C(=O)OC(C)C)CC2)c1C#N` (stereo not drawn) [Example 28, Isopropyl 4-(5-cyano-4-{1-[(2-methylpyridin-3-yl)oxy]ethyl}-1H-pyrazol-1-yl)piperidine-1-carboxylate] displayed an EC50 greater than 10000 nM. For the same molecule, the inhibitory constant (Ki) at human GPR119 [2] is greater than 6100 nM. Also, at human GPR119 [3], the 50% effective concentration (EC50) was 5 nM and 3 nM; the Emax stood at 27%. Further, the “Intrinsic Activity* (B-lactamase)” value on human GPR119 [3] (listed as Exmaple 28) stood at 22%.
Turning to `CC(C)OC(=O)N1CCC(n2ncc(COc3ccc(-n4cnnn4)cc3)c2C#N)CC1` [Example 4, Isopropyl 4-(5-cyano-4-{[4-(1H-tetrazol-1-yl)phenoxy]methyl}-1H-pyrazol-1-yl)piperidine-1-carboxylate], the EC50 on human GPR119 [1] (setting [4]) is 10 nM and 9 nM. On human GPR119 [1] (setting [5]), the “Intrinsic Activity* (cAMP)” value is 60% and the Emax is 80%. Besides, on human GPR119 [2], the Ki was 5 nM. At human GPR119 [3], the EC50 is 15 nM and 16 nM; the “Intrinsic Activity* (B-lactamase)” value came to 95%; the Emax is 97%.
Turning to `CC(C)OC(=O)N1CCC(n2ncc(CCc3ccc(S(C)(=O)=O)cc3F)c2C#N)CC1` [Example 9, Isopropyl 4-(5-cyano-4-{2-[2-fluoro-4-(methylsulfonyl)phenyl]ethyl}-1H-pyrazol-1-yl)piperidine-1-carboxylate], the inhibitory constant (Ki) on human GPR119 [2] was 35 nM and 42 nM. Also, at human GPR119 [3], the EC50 is 56 nM and 89 nM; the “Intrinsic Activity* (B-lactamase)” value came to 93%; the Emax was determined as 98%.
At human GPR119 [1] (setting [4]), `CC1(OC(=O)N2CCC(n3ncc(COc4ccc(C(N)=O)c(F)c4)c3C#N)CC2)CC1` [Example 26, 1-Methylcyclopropyl 4-(4-((4-carbamoyl-3-fluorophenoxy)methyl)-5-cyano-1H-pyrazol-1-yl)piperidine-1-carboxylate] displayed a concentration giving a half-maximal response (EC50) of 254 nM. In addition, the Emax on human GPR119 [1] (setting [5]) was 62%.
On to `CC(C)OC(=O)N1CCC(n2ncc(COc3ccc(-c4nnnn4CCO)cc3F)c2C#N)CC1` [Example 23, Isopropyl 4-(5-cyano-4-((2-fluoro-4-(1-(2-hydroxyethyl)-1H-tetrazol-5-yl)phenoxy)methyl)-1H-pyrazol-1-yl)piperidine-1-carboxylate], for which, on human GPR119 [1] (setting [6]), the EC50 was 1640 nM and 1470 nM; the Emax is 100%. In addition, the Ki on human GPR119 [2] amounted to 150 nM.
For `CC(C)OC(=O)N1CCC(n2ncc(COc3ccc(-n4cccn4)cc3)c2C#N)CC1` [Example 18, Isopropyl 4-(4-((4-(1H-pyrazol-1-yl)phenoxy)methyl)-5-cyano-1H-pyrazol-1-yl)piperidine-1-carboxylate], at human GPR119 [1] (setting [4]), the EC50 was 67 nM and 69 nM. For the same molecule, on human GPR119 [1] (setting [5]), the “Intrinsic Activity* (cAMP)” value amounted to 75% and the Emax is 80%. At human GPR119 [2], the inhibitory constant (Ki) amounted to 153 nM.
Turning to `Cn1nnnc1-c1ccc(OCc2cnn(C3CCN(C(=O)OC4(C)CC4)CC3)c2C#N)cc1` [Example 25, 1-Methylcyclopropyl 4-(5-cyano-4-{[4-(1-methyl-1H-tetrazol-5-yl)phenoxy]methyl}-1H-pyrazol-1-yl)piperidine-1-carboxylate], on human GPR119 [1] (setting [4]), the half-maximal effective concentration (EC50) was 57 nM and 111 nM. Also, the “Intrinsic Activity* (cAMP)” value on human GPR119 [1] (setting [5]) was 88% and 114%. For the same molecule, the Ki at human GPR119 [2] worked out at 418 nM.
`CC(C)OC(=O)N1CCC(n2ncc(COc3ccc(-c4nnn(CCO)n4)cc3F)c2C#N)CC1` [Example 22, Isopropyl 4-(5-cyano-4-((2-fluoro-4-(2-(2-hydroxyethyl)-2H-tetrazol-5-yl)phenoxy)methyl)-1H-pyrazol-1-yl)piperidine-1-carboxylate]: on human GPR119 [1] (setting [4]), the EC50 was 147 nM and 161 nM. The Emax at human GPR119 [1] (setting [5]) stood at 29%. The Ki on human GPR119 [2] came to 159 nM.

The record behind these values is patent US20110020460A1, “GPR 119 MODULATORS” (Pfizer Inc., priority 2009, published 2011).
